# From US6890708B2, “Method for improving the quality of sperm for artificial insemination of animals” (priority 2000, dated 2005)
# What was measured:
# Assay type in all cases: cell-based, pig
# [1] = test system: Polymorphonuclear Neutrophils (PMN); assay: In vitro phagocytosis of boar sperm by PMN (phagocytosis assay); conditions: for % of phagocytosed sperm: Exp. 1, preincubated 30 min. at 38° C.
# Protocol: Tyrode's medium was used as described as “standard Tyrode's medium” in […] et al. ([…], Harrison, R A P, Miller, N G A, Topper, E K, and Woelders, H, 1998, Enhanced Binding of Zona Pellucida Proteins to the Acrosomal Region of Intact Boar Spermatozoa in Response to Fertilizing Conditions: A Flow Cytometric Study. […] Serum was prepared from blood collected from 11 primiparous sows, pooled, and frozen in aliquots at -80° C. Per experiment, 20 ml peripheral blood of a single Dutch Landrace sow (each experiment a different sow) was collected in heparinized vacutainers (Venoject, Omnilabo, Breda, The Netherlands). The peripheral blood was subsequently diluted with an equal volume of phosphate buffered saline (PBS). […] The supernatant, including the mononuclear cells at the interface, was removed. The pellet was resuspended in 2 ml of ice-cold distilled water to lyse the erythrocytes. […] The PMNs were pelleted by centrifugation for 10 min at 400×g and the lysis procedure was repeated. […] All cell suspensions were pooled together, mixed well, and subjected to centrifugation. The PMN were resuspended in TM-s with inactivated complement, and the cell concentration was determined using a hemocytometer. The PMN preparation was stored overnight at 4° C. […] The viability, assessed by trypan blue exclusion, was >98%. Semen was obtained from Dutch A.I. stations. Per experiment, semen was used from a single Yorkshire breeding boar (each experiment a different boar). At the AI-station, the semen was diluted to a concentration of approximately 30×10^6 cells/ml in Beltsville Thawing Solution (BTS) (Johnson et al., 1988). The diluted semen was stored at 17° C. for up to 48 hours, until the diluted semen sample was used. […] Aliquots of 80 μl of the PMN suspension (see, PMN isolation and preparation of PMNs) in TM or TM-s, with either intact or inactivated complement, were transferred to a 96-well polystyrene microtest plate. […] The samples were incubated with gentle swirling on a test plate shaker. […] The heparin facilitates dissociation of agglutinated PMNs. The samples were thoroughly mixed, left for 15 min., and mixed again. […] The frozen-thawed semen was taken from a large stock of semen from one ejaculate and washed 3 times in PBS prior to use. […] The mounts enabled observation and counting of fluorescently labeled spermatozoa inside and outside the phagocytes. By focusing at different levels in the mount, spermatozoa that were located above or below the PMN could be distinguished from those that were phagocytosed. In many PMNs that had ingested a spermatozoon, the presence of the sperm nucleus or tail caused a conspicuous change of the shape of the PMN. Two hundred spermatozoa were evaluated and classified as inside or outside the PMN (i.e., phagocytosed or not phagocytosed). The same fixed mounts were used to assess the acrosome morphology of the non-phagocytosed spermatozoa at the moment of fixation.
# boar spermatozoa [2] = assay: Sperm viability in vitro (motility, acrosome morphology), Example I; conditions: Exp. 1
# Protocol: Aliquots of 80 μl of the PMN suspension (see, PMN isolation and preparation of PMNs) in TM or TM-s, with either intact or inactivated complement, were transferred to a 96-well polystyrene microtest plate. To each well, 20 μl of sperm suspension (see, preparation of semen samples) was added and the microtest plate was placed in a humidified incubator at 38° C. with 5% CO2 in air. […] The samples were incubated with gentle swirling on a test plate shaker. After 15, 30, 45, 60 or 90 min., samples were quantitatively transferred into tubes containing an equal volume of 40 mg ml^−1 heparin (Sigma) in PBS. The heparin facilitates dissociation of agglutinated PMNs. The samples were thoroughly mixed, left for 15 min., and mixed again. Subsamples of 75 μl were fixed by addition of 25 μl of 2% (v/v) glutaraldehyde (Fluka, Brunschwig chemie, Amsterdam, The Netherlands) in PBS. “Blank” samples, i.e., sperm without PMNs (80 μl TM-s mixed with 20 μl sperm suspension), were incubated in parallel to monitor sperm survival during the treatment. “Reference” samples, i.e., frozen-thawed (killed) semen, were incubated in parallel with the PMNs as a reference for the phagocytotic activity of the PMNs. The frozen-thawed semen was taken from a large stock of semen from one ejaculate and washed 3 times in PBS prior to use.
# For evaluation of phagocytosis, wet mounts of the fixed samples were examined with a combination of phase-contrast and fluorescence microscopy (Olympus BH2, Tokyo, Japan) at 400× magnification. The mounts enabled observation and counting of fluorescently labeled spermatozoa inside and outside the phagocytes. By focusing at different levels in the mount, spermatozoa that were located above or below the PMN could be distinguished from those that were phagocytosed. […] Two hundred spermatozoa were evaluated and classified as inside or outside the PMN (i.e., phagocytosed or not phagocytosed). The same fixed mounts were used to assess the acrosome morphology of the non-phagocytosed spermatozoa at the moment of fixation. One hundred cells were classified using phase-contrast microscopy at 400× magnification, as NAR (normal apical ridge), NAR' (slightly altered normal apical ridge), DAR (damaged apical ridge), MAR (missing apical ridge) and LAC (loose acrosomal cap), as described by Pursel et al. (Pursel V G, Schulman L L and Johnson L A, 1978, Distribution and morphology of fresh and frozen-thawed sperm in the reproductive tract of gilts after insemination Biology of Reproduction 19 69-76.)
# boar spermatozoa [3] = assay: as above; conditions: Exp. 1; after adding active compound and pre-incubation 30 min. at 38° C.
# [4] = after adding active compound and pre-incubation 30 min. at 38° C.
# [5] = blank samples without PMN, (2x), phagocytosis time 30 min.
# [6] = blank samples without PMN, preincubated 30 min. at 38° C., phagocytosis time 30 min.
compound,measurement,setting,value
"CCCC(=O)Nc1ncnc2c1ncn2[C@@H]1O[C@@H]2COP(=O)(O)O[C@H]2[C@H]1OC(=O)CCC [Db-cAMP, dibutyryl-cAMP]",% of phagocytosed sperm,"[1]; 0.1 mM, phagocytosis time 15 min",35%
same,% of phagocytosed sperm,"[1]; 0.1 mM, phagocytosis time 30 min",59%
same,% of phagocytosed sperm,"[1]; 0.1 mM, phagocytosis time 60 min",60%
same,% of phagocytosed sperm,"[1]; 0.1 mM, phagocytosis time 90 min",65%
same,% of phagocytosed sperm,"[1]; 0.2 mM, phagocytosis time 15 min",47%
same,% of phagocytosed sperm,"[1]; 0.2 mM, phagocytosis time 30 min",47%
same,% of phagocytosed sperm,"[1]; 0.2 mM, phagocytosis time 60 min",58%
same,% of phagocytosed sperm,"[1]; 0.2 mM, phagocytosis time 90 min",54%
same,% DAR,boar spermatozoa [2]; [4],23%
same,% LAC,boar spermatozoa [2]; [4],08%
same,% MAR,boar spermatozoa [2]; [4],02%
same,% NAR,boar spermatozoa [2]; [4],67%
same,% LAC,boar spermatozoa [2]; [5],08%
same,% MAR (second value of NAR-MAR-MAR-LAC),boar spermatozoa [2]; [5],36%
same,% MAR (third value of NAR-MAR-MAR-LAC),boar spermatozoa [2]; [5],02%
same,% NAR,boar spermatozoa [2]; [5],54%
same,% LAC,boar spermatozoa [2]; [6],06%
same,% MAR (second value of NAR-MAR-MAR-LAC),boar spermatozoa [2]; [6],36%
same,% MAR (third value of NAR-MAR-MAR-LAC),boar spermatozoa [2]; [6],02%
same,% NAR,boar spermatozoa [2]; [6],56%
same,% motile sperm,boar spermatozoa [3],60%
O=C(O)CN(CCN(CC(=O)O)CC(=O)O)CC(=O)O [EDTA],"phagocytosis of sperm by PMN in vitro, in words",[1],reduce phagocytosis of sperm in vitro
"Nc1ncnc2c1ncn2[C@@H]1O[C@@H]2COP(=O)(O)O[C@H]2[C@H]1O [cAMP, cyclic Adenosine MonoPhosphate]","phagocytosis of sperm by PMN in vitro, in words",[1],inhibits the phagocytosis of sperm in vitro
heparin,"phagocytosis of sperm by PMN in vitro, in words",[1],inhibited strongly
